Assay results as given in patent US20100093872A1, “STABLE AQUEOUS FORMULATIONS OF WATER INSOLUBLE OR POORLY SOLUBLE DRUGS” (Erimos Pharmaceuticals LLC, priority 2008, published 2010).
Values after ≈ are worked out from the molar mass of the structure shown. Read-outs that look alike come from different tables or passages of the source.

Key:
[1] = cited from earlier work
[2] = Chemical stability of terameprocol under stress (base, acid, heat, light, oxidizer, water); format: physicochemical; conditions: subjected to base, oxidizer, and water
From the text: Terameprocol is a small molecule with a molecular weight of 358.5 g/mol; it is hydrophobic, and non-ionic.

[3] = Stability of terameprocol/HPβCD 5 L formulation with NaCl and after autoclaving (precipitation); format: physicochemical
Method: The 5 L experiments were conducted to (a) explore the acceptable temperature range indicated in ‘b’ above required for forming terameprocol cyclodextrin complexes, (b) evaluate the stability of terameprocol/HPβCD upon autoclaving: 15 minutes vs. 30 minutes at 121° C., (c) evaluate the compatibility of terameprocol/HPβCD with 0.5% (w/v) sodium chloride (NaCl), and (d) develop a process which could be scaled to the next engineering size of 60 L. The acceptable temperature required for complexation of terameprocol and cyclodextrin (HPβCD) was determined to be above the melting point of terameprocol (>104° C.). The resulting terameprocol/HPβCD formulation was stable for 4 weeks at room temperature (RT), 4 weeks under refrigerated conditions, and 2 weeks under accelerated conditions (40° C.) for all sample types evaluated: non-autoclaved, autoclaved up to 30 minutes, and upon spiking with NaCl as shown in Table 2. The compatibility of terameprocol/HPβCD with NaCl supports flushing of the IV lines with 0.9% Saline to keep lines patent if required.

[4] = Determination of optimum temperature requirement (microscopic images of in-process samples); format: physicochemical; conditions: for crystals in in-process sample (microscopic image): HPβCD solution, homogenized
Method: A solution of HPβCD was prepared in a 5 L jacketed vessel and heated to aid in dissolution. Terameprocol was added slowly to the HPβCD solution. The in-line homogenizer was utilized and the temperature was maintained at 40° C. for 2 hours. […] The temperature was increased to 60° C. with homogenization and held for one hour. […] The temperature was increased to 80° C. under homogenization for 2 hours. It was noted that due to heating in a closed vessel, the system was slightly pressurized due to the increase in operating temperature. […] The experiment was repeated but the system was taken to temperature above the melting point (>104° C.) with homogenization in the same closed vessel. The vessel was then cooled and samples taken. […] It was concluded the optimum temperature requirement was that above the drug's melting point.

physchem [5] = format: physicochemical; conditions: organic solvent or mixture, thermodynamic from solid
Method: The solubility of terameprocol was tested in various solvents and dispersed systems. An excess of the solid API (20-50 mg) was shaken with 1 mL of a given solvent overnight (˜16 hr) at room temperature on a gyratory shaker at maximum speed. The samples were filtered through 0.45 μm PVDF filter. The filtrates were diluted to the working linear range (0.06-0.1 mg/mL) of the UV-Vis method appropriately in acetonitrile and analyzed for terameprocol concentration using a UV-Vis spectrophotometer. The equation of the standard curve was y=16.70x+0.016 with a R^2=0.999 monitored at 281 nm.
Solubility in PEG 300 increased with increasing temperature with the value being greater than 600 mg/mL at 95° C.

physchem [6] = format: physicochemical; conditions: water
Method: Terameprocol is an extremely difficult drug to formulate because it is effectively insoluble in all of the commonly used aqueous media used for intravenous delivery of pharmaceuticals. Terameprocol's solubility in an aqueous solvent, at all pH's in water, 0.9% saline and 5% dextrose is <0.01 mg/mL, a level below the limit of quantitation of the RP-HPLC assay used for evaluation. In order to develop a formulation suitable for clinical use, it is preferred that the solubility of the drug be equal to or exceed 5 mg/mL. At concentrations below this limit, large volumes of solvent are required to deliver the drug. The extremely low solubility of terameprocol presents major formulation challenges using conventional formulation techniques such as the use of organic solvents, surfactants or extremes of pH. These conventional formulation approaches would require the administration of large concentrations of co-solvents and may render the solution viscous and/or difficult to handle during reconstitution in the bedside or pharmacy. […] The use of conventional approaches have met with limited success when formulating terameprocol for intravenous parenteral administration.

[7] = Achievable terameprocol concentration in HPβCD formulations without co-solvent (bench-scale development); format: physicochemical
Method: The inventors of the present invention have made the surprising discovery that terameprocol can be formulated in cyclodextrins without the need for elaborate chemical solvent matrices and that lead to increases in the solubility of water insoluble drugs through the formation of a stable inclusion complex. […] Details of this will be discussed later.
Bench-top (10 mL) to 5 L scale development studies were performed to remove PEG 300 from terameprocol/HPβCD formulations. Conclusions from the bench scale experiments were (a) 7 mg/mL is the maximum achievable terameprocol concentration in an IV formulation containing 30-40% HPβCD (b) incorporating the drug at high temperatures (80° C. or greater) is an important step in forming the inclusion complex (c) high mechanical energy must be provided when cooling the complex to approximately ambient condition once formed. There were differences in equipment used at the 10 mL vs. 5 L scale. The 10 mL scale utilized glass beakers with a sonicator for incorporation, while the 5 L experiments were conducted with a 10 L stainless steel jacketed vessel equipped with a recirculating heating bath, overhead air powered blade mixer and an in-line homogenizer.

[8] = Accelerated stability of 60 L lot terameprocol/HPβCD samples; format: physicochemical; conditions: 40° C/75% RH for 1 month; 60 L lots; no pH adjustment with/without homogenization, or pH 7 without homogenizer, with/without autoclaving
Method: The 5 L terameprocol formulation process was scaled up to 60 L lots. The 60 L lots were conducted to (a) evaluate the criticality of using an homogenizer to promote complexation of the terameprocol and HPβCD (b) evaluate the stability of the terameprocol/HPβCD complex upon pH adjustment after compounding using NaOH and/or HCl (c) investigate the stability after autoclaving up to 30 minutes at 121° C. of the non pH adjusted, pH adjusted, homogenized, and non-homogenized terameprocol samples (d) optimize the 5 L formulation process to 60 L in order to support a clinical scale-up to 373 L.
It was determined that with proper tank design using an aggressive mixer introduced enough energy into the system where the homogenizer may not be critical for complexation. Samples of terameprocol that had 1) no pH adjustment with and without homogenization and 2) pH adjusted to 7 with no homogenizer and with and without autoclaving were stable at the accelerated condition of 40° C/75% RH for 1 month.

[9] = 0.5% w/v NaCl, autoclaved 15 min at 121° C.
[10] = 0.5% w/v NaCl, autoclaved 30 min at 121° C.
[11] = Unspiked, autoclaved 15 min at 121° C.
[12] = Unspiked, autoclaved 30 min at 121° C.

Which stability during sterilization ([1]; 121° C. for 15 minutes) does the source give for `CC(O)COC[C@H]1O[C@@H]2O[C@H]3[C@H](O)[C@@H](O)[C@@H](O[C@H]4[C@H](O)[C@@H](O)[C@@H](O[C@H]5[C@H](O)[C@@H](O)[C@@H](O[C@H]6[C@H](O)[C@@H](O)[C@@H](O[C@H]7[C@H](O)[C@@H](O)[C@@H](O[C@H]8[C@H](O)[C@@H](O)[C@@H](O[C@H]1[C@H](O)[C@H]2O)O[C@@H]8COCC(C)O)O[C@@H]7COCC(C)O)O[C@@H]6COCC(C)O)O[C@@H]5COCC(C)O)O[C@@H]4COCC(C)O)O[C@@H]3COCC(C)O` (stereo partly drawn) [HPβCD, hydroxypropyl beta-cyclodextrin] here?
The stability during sterilization was “stable”.

What about the hydrolysis ([1]; extreme acidic conditions of pH 2 at 60° C.) of the same compound?
The hydrolysis was “slight hydrolysis”.

What about the hydrolysis ([1]; pH 4, at 40° C. after 24 hrs) of the same compound?
Its hydrolysis is “No significant hydrolysis”.

Which results are given for `COc1ccc(C[C@@H](C)[C@@H](C)Cc2ccc(OC)c(OC)c2)cc1OC` [terameprocol, tetra-o-methyl nordihydroguaiaretic acid]?
stability / degradation [2]: does not degrade; Precipitation 2-8° C. (4-weeks) [3, 9]: No; Precipitation 40° C. (2-weeks) [3, 9]: No; Precipitation RT (4-weeks) [3, 9]: No; Terameprocol [3, 9]: 6.03 mg/mL; Precipitation 2-8° C. (4-weeks) [3, 10]: No; Precipitation 40° C. (2-weeks) [3, 10]: No; Precipitation RT (4-weeks) [3, 10]: No; Terameprocol [3, 10]: 5.77 mg/mL; Precipitation 2-8° C. (4-weeks) ([3]; 0.5% w/v NaCl, not autoclaved): No; Precipitation 40° C. (2-weeks) ([3]; 0.5% w/v NaCl, not autoclaved): No; Precipitation RT (4-weeks) ([3]; 0.5% w/v NaCl, not autoclaved): No; Terameprocol ([3]; 0.5% w/v NaCl, not autoclaved): 5.89 mg/mL; Precipitation 2-8° C. (4-weeks) [3, 11]: No; Precipitation 40° C. (2-weeks) [3, 11]: No; Precipitation RT (4-weeks) [3, 11]: No; Terameprocol [3, 11]: 5.76 mg/mL; Precipitation 2-8° C. (4-weeks) [3, 12]: No; Precipitation 40° C. (2-weeks) [3, 12]: No; Precipitation RT (4-weeks) [3, 12]: No; Terameprocol [3, 12]: 5.97 mg/mL; Precipitation 2-8° C. (4-weeks) ([3]; Unspiked, not autoclaved): No; Precipitation 40° C. (2-weeks) ([3]; Unspiked, not autoclaved): No; Precipitation RT (4-weeks) ([3]; Unspiked, not autoclaved): No; Terameprocol ([3]; Unspiked, not autoclaved): 5.80 mg/mL; crystals in in-process sample (microscopic image) ([4]; 40° C. for 2 hours (FIG. 6-A)): numerous terameprocol crystals present; crystals in in-process sample (microscopic image) ([4]; 60° C. for one hour (FIG. 6-B)): presence of crystals was still evident; crystals in in-process sample (microscopic image) ([4]; 80° C. for 2 hours (FIG. 6-C)): significant reduction in crystal formation; crystal formation ([4]; processed above the melting point (>104° C.) with homogenization, immediately or after 4 weeks): no crystal formation; solubility at 16 h (physchem [5]; 25 °C, solubility in pharmaceutically relevant solvents): < 10 mg/mL; solubility (physchem [5]; 40 °C): 10.1 mg/mL (≈ 28.2 mM); solubility (physchem [5]; 80 °C): > 400 mg/mL; solubility (physchem [5]; 95 °C): > 600 mg/mL; solubility (physchem [6]): < 0.01 mg/mL; maximum achievable terameprocol concentration ([7]; IV formulation containing 30-40% HPβCD, no PEG 300, bench scale): 7 mg/mL; concentration obtained on mixing with cyclodextrin in water without solvent ([7]; all temperatures below the melting point, or precipitation): ≤ 7000 µg/mL; formulation stability [8]: stable
